Format in all cases: functional
The test system of assay [1] is Enterococcus faecalis. The experiment in a line: Antibacterial activity against VAN-resistant Enterococcus faecalis ATCC 51299 after 18 hrs by agar dilution method. Particulars: ATCC 51299, 18 h.
In assay [2] the test system is Enterococcus faecium. The experiment in a line: Antibacterial activity against VAN-resistant Enterococcus faecium ATCC 700221 after 18 hrs by agar dilution method. Particulars: ATCC 700221, 18 h. For orientation: In agar dilution, organisms are placed on agar that contains the substance at set levels.
Assay [3] concerns Staphylococcus epidermidis. The experiment in a line: Antibacterial activity against methicillin-resistant Staphylococcus epidermidis 13-3 after 18 hrs by agar dilution method. Particulars: 13-3, 18 h.
Assay [4] deals with Staphylococcus aureus. The experiment in a line: Antibacterial activity against methicillin-resistant Staphylococcus aureus ATCC 33591 after 18 hrs by agar dilution method. Particulars: ATCC 33591, 18 h.
Assay [5] relates to Enterococcus faecalis. As to the kind of experiment: Antibacterial activity against VAN-sensitive Enterococcus faecalis ATCC 29212 after 18 hrs by agar dilution method. The settings on record: ATCC 29212, 18 h.
Assay [6] concerns Staphylococcus aureus. As to the kind of experiment: Antibacterial activity against VAN-intermediate Staphylococcus aureus ATCC 700698 after 18 hrs by agar dilution method. The settings on record: ATCC 700698, 18 h.
The test system of assay [7] is Staphylococcus aureus. The experiment in a line: Antibacterial activity against methicillin-sensitive Staphylococcus aureus ATCC 29213 after 18 hrs by agar dilution method. The settings on record: ATCC 29213, 18 h.

Data on 10 molecules can be found in ChEMBL document CHEMBL4340517, “Synthesis and biological evaluation of 7-substituted cycloberberine derivatives as potent antibacterial agents against MRSA” (2019).

Converted amounts (≈) assume the structure as drawn.

Usually MIC stands for the smallest concentration in the dilution series that meets the test's criterion for growth inhibition. Read a low MIC as greater potency. As for `CCc1cc2c3ccc(OC)c(OC)c3c[n+]3c2c2c(cc4c(c12)OCO4)CC3.[Cl-]`, the minimal inhibitory concentration (MIC) in assay [1] stood at 8 µg/mL; in assay [2] it was 32 µg/mL; in assay [3] it was 1 µg/mL; in assay [4] it was 4 µg/mL; in assay [5] it was 8 µg/mL; in assay [6] it was 16 µg/mL. In addition, the MIC in assay [7] was 2 µg/mL.
Turning to `CN[C@H](CC(C)C)C(=O)N[C@H]1C(=O)N[C@@H](CC(N)=O)C(=O)N[C@H]2C(=O)N[C@H]3C(=O)N[C@H](C(=O)N[C@H](C(=O)O)c4cc(O)cc(O)c4-c4cc3ccc4O)[C@H](O)c3ccc(c(Cl)c3)Oc3cc2cc(c3O[C@@H]2O[C@H](CO)[C@@H](O)[C@H](O)[C@H]2O[C@H]2C[C@](C)(N)[C@H](O)[C@H](C)O2)Oc2ccc(cc2Cl)[C@H]1O` [VANCOMYCIN], the MIC is 32 µg/mL (≈ 22.1 µM) in assay [1], 64 µg/mL (≈ 44.2 µM) in assay [2], 2 µg/mL (≈ 1.38 µM) in assay [5] and 8 µg/mL (≈ 5.52 µM) in assay [6].
Regarding `CCCc1cc2c3ccc(OC)c(OC)c3c[n+]3c2c2c(cc4c(c12)OCO4)CC3.[Cl-]`, the MIC in assay [1] worked out at 8 µg/mL; in assay [2] it was 8 µg/mL; in assay [3] it was 4 µg/mL; in assay [4], 16 µg/mL; in assay [5] it was 8 µg/mL; in assay [6] it was 8 µg/mL. Also, inhibition of growth in assay [7] (MIC) required 2 µg/mL.
`CCCCc1cc2c3ccc(OC)c(OC)c3c(-c3ccccc3)[n+]3c2c2c(cc4c(c12)OCO4)CC3.[Br-]`: the MIC in assay [1] stood at 4 µg/mL; in assay [2], 1 µg/mL; in assay [3], 1 µg/mL; in assay [4], 2 µg/mL; in assay [5] it was 2 µg/mL; in assay [6] it was 32 µg/mL. In addition, the minimal inhibitory concentration (MIC) in assay [7] is 1 µg/mL.
Turning to `COc1ccc2c(c1OC)c(-c1ccc3c(c1)OCO3)[n+]1c3c2ccc2c4c(cc(c23)CC1)OCO4.[Br-]`, the MIC came out at 8 µg/mL in assay [1]; 8 µg/mL in assay [2]; 2 µg/mL in assay [3]; 16 µg/mL in assay [4]; 8 µg/mL in assay [5]; 32 µg/mL in assay [6]. Moreover, in assay [7], the MIC stood at 16 µg/mL.
With `COc1cc2c3c(ccc4c5ccc(OC)c(OC)c5c(-c5ccc6c(c5)OCO6)[n+](c43)CC2)c1OC.[Br-]`, the MIC in assay [1] was 32 µg/mL; in assay [2], greater than 128 µg/mL; in assay [3], 2 µg/mL; in assay [4] it was 8 µg/mL; in assay [5] it was 32 µg/mL; in assay [6], 32 µg/mL. Moreover, the MIC in assay [7] amounted to 4 µg/mL.
For the molecule `CCc1c2c(OC)c(OC)ccc2c2ccc3c4c(cc5c3c2[n+]1CC5)OCO4.[Br-]`, the MIC was 16 µg/mL in assay [1]; 8 µg/mL in assay [2]; 4 µg/mL in assay [3]; 16 µg/mL in assay [4]; 16 µg/mL in assay [5]; 64 µg/mL in assay [6]. The same molecule had a minimum inhibitory concentration (MIC) in assay [7] of 4 µg/mL.
For `COc1ccc2c(c1OC)c(-c1ccc(Cl)cc1)[n+]1c3c2ccc2c4c(cc(c23)CC1)OCO4.[Br-]`, the MIC in assay [1] is 8 µg/mL; in assay [2] it was greater than 128 µg/mL; in assay [3], 1 µg/mL; in assay [4], 4 µg/mL; in assay [5], 8 µg/mL; in assay [6] it was 8 µg/mL. 2 µg/mL was the least that counted as inhibitory in assay [7] (MIC).
In the case of `COc1ccc2c(c1OC)c(-c1ccc(F)cc1)[n+]1c3c2ccc2c4c(cc(c23)CC1)OCO4.[Br-]`, the MIC is 16 µg/mL in assay [1]; greater than 128 µg/mL in assay [2]; 4 µg/mL in assay [3]; 8 µg/mL in assay [4]; 16 µg/mL in assay [5]; 16 µg/mL in assay [6]. In assay [7], this molecule returned an MIC of 8 µg/mL.
For the molecule `COc1cc2c3c(ccc4c5ccc(OC)c(OC)c5c(-c5ccccc5)[n+](c43)CC2)c1OC.[Br-]`, the MIC in assay [1] is 32 µg/mL; in assay [2], greater than 128 µg/mL; in assay [3], 4 µg/mL; in assay [4] it was 16 µg/mL; in assay [5] it was 32 µg/mL; in assay [6], 32 µg/mL. Also, the MIC in assay [7] came to 4 µg/mL.
